Each compound was assayed against T1, HIV protease (Human immunodeficiency virus type 1 group M subtype B, UniProt P04585) (assay: Assay for Inhibition of Microbial Expressed Viral Protease). Settings: protease expressed in Eschericia coli; peptide substrate Val-Ser-Gln-Asn-(betanapthyl)Ala-Pro-lie-Val 0.5 mg/ml; 50 mM Na acetate, pH 5.5, 30° C, 1 hr; HPLC readout.
T1 construct: the protease expressed in Eschericia coli; made in house; host or cells: Escherichia coli
Type: biochemical
Protocol: Assay for Inhibition of Microbial Expressed Viral Protease
Inhibition studies of the reaction of the protease expressed in Eschericia coli with a peptide substrate [Val-Ser-Gln-Asn-(betanapthyl)Ala-Pro-lie-Val, 0.5 mg/ml at the time the reaction is initiated] were in 50 mM Na acetate, pH 5.5, at 30° C for 1 hr. Various concentrations of inhibitor in 1.0 ul DMSO were added to 25 ul of the peptide solution in water. The reaction is initiated by the addition of 15 ul of 0.33 nM protease (0.11 ng) in a solution of 0.133 M Na acetate pH 5.5 and 0.267% bovine serum albumin. The reaction was quenched with 160 ul of 5% phosphoric acid. Products of the reaction were separated by HPLC (VYDAC wide pore 5 cm C-18 reverse phase, acetonitrile gradient, 0.1% phosphoric acid). The extent of inhibition of the reaction was determined from the peak heights of the products.
With `CC[C@H](C)[C@H](NC(=O)[C@H](Cc1ccccc1)C[C@H](O)[C@H](Cc1ccccc1)NC(=O)CCC(=O)O)C(=O)NCc1ccccc1` [Compound F, N-benzyl-N'-(succinoyl)-5(S)-amino-4(S)-hydroxy-6-phenyl-2(R)-(phenylmethyl)hexanoyl isoleucyl amide] the IC50 was 0.5 to 10 nM.
Work on `O=C(O)CCC(=O)N[C@@H](Cc1ccccc1)[C@@H](O)C[C@@H](Cc1ccccc1)C(=O)N[C@H]1c2ccccc2C[C@H]1O` [Compound G, N-(2(R)-hydroxy-1 (S)-indanyl)-N'-(succinoyl)-5(S)-amino-4(S)-hydroxy-6-phenyl-2(R)-(phenylmethyl)-hexanamide] yielded an IC50 of 0.5 to 10 nM.
Compound `CS(=O)(=O)N[C@@H](Cc1ccccc1)[C@@H](O)C[C@@H](Cc1ccccc1)C(=O)N[C@H]1c2ccccc2C[C@H]1O` [Compound H, N-(2(R)-hydroxy-1 (S)-indanyl)-N'-(methanesulfonyl)-5(S)-amino-4(S)-hydroxy-6-phenyl-2(R)-(phenylmethyl)-hexanamide] has an IC50 of 0.5 to 10 nM.
`O=C1CC[C@@H](C(=O)N[C@@H](Cc2ccccc2)[C@@H](O)C[C@@H](Cc2ccccc2)C(=O)N[C@H]2c3ccccc3C[C@H]2O)O1` [Compound J, N-(2(R)-hydroxy-1 (S)-indanyl)-N'-(5-oxo-2(S)-tetrahydrofuranylcarbonyl)-5(S)-amino-4(S)-hydroxy-6-phenyl-2(R)-(phenylmethyl)hexanamide] was tested, and the IC50 was 0.5 to 10 nM.
